Several values for one entry are separate records, joined by “and”; a condition that tells them apart may be missing. Equal values may be shown once. Read-outs that look alike come from different tables or passages of the source.

The values that follow come from patent publication US12291502B2, “Topoisomerase II-alpha inhibitors and methods of treating cancer using the same” (The Regents of the University of Colorado, priority 2019, dated 2025).

The target in one data set is T1, Human TOP2A (Homo sapiens, UniProt P11388).
T1 construct: purchased TopoGEN (Buena Vista, CO)
Briefly: TOP2A DNA decatenation assay (kDNA, agarose gel). Type of data set: biochemical. The conditions noted are these: for inhibition at 30 µM: 1 h, read-out: % Inhibition TOP2A (30 μM); for IC50: decatenation dose response. The method, then: Inhibition of TOP2A activity. Human TOP2A, kDNA, and assay buffers were obtained from TopoGEN (Buena Vista, CO). The synthesized compounds were screened for their TOP2A inhibitory activity by the intensity of DNA decatenation bands on a DNA gel when compared to the vehicle. Compounds were initially incubated with TOP2A (3 U/reaction) for 20 min at a 30 μM and 1.2% DMSO concentration in a 37° C. incubator without CO2.
The decatenation reaction was initiated immediately after by adding 2 mM ATP and 35 ng/reaction of kDNA, then incubated for 1 hour in a 37° C. water bath. The samples were loaded into a 0.8% agarose gel in 1× Tris-Borate-EDTA (TBE) at a 0.2 μg/mL ethidium bromide concentration and allowed to run in an electrophoretic chamber for 1 hour at 100V. Compounds with the highest inhibitory activity were selected for 2-fold serial dilution dose-response assays (58.6 nM-30 μM). The dose-response assays followed the same protocol with the exception of 4 U/reaction of TOP2A.
Inhibition studies of TOP2A and observed structure activity relationships (SAR). DNA catenation/decatenation or linking/unlinking of DNA is one of the main TOP2A functions essential for regulating DNA topology, and this is ATP dependent. […] Thus, as a starting point, the synthesized analogs were screened against TOP2A-dependent decatenation using 30 μM fixed concentrations, and the DNA from reactions were resolved on 0.8% agarose gels containing ethidium bromide.
Moreover, these studies provided interesting SAR, which shed light on the potential lead drug target binding interactions and affinity, biological activity, and future drug design optimization with this unique class of TOP2A inhibitors.
(§1) TOP2A decatenation assay. Human TOP2A, kDNA, and assay buffers were obtained from TopoGEN (Buena Vista, CO). The synthesized compounds were screened for their TOP2A inhibitory activity by the intensity of DNA decatenation bands on a DNA gel when compared to the vehicle. Compounds were initially incubated with TOP2A (3 U/reaction) for 20 min at a 30 μM and 1.2% DMSO concentration in a 37° C. incubator without CO2. The decatenation reaction was initiated immediately after by adding 2 mM ATP and 35 ng/reaction of kDNA, then incubated for 1 h in a 37° C. water bath. The samples were loaded into a 0.8% agarose gel in 1× Tris-Borate-EDTA (TBE) at a 0.2 μg/mL ethidium bromide concentration and allowed to run in an electrophoretic chamber for 1 h at 100V. Compounds with the highest inhibitory activity were selected for 2-fold serial dilution dose-response assays (58.6 nM-30 μM). The dose-response assays followed the same protocol with the exception of 4 U/reaction of TOP2A,
as §1, with “assays (53.6” for “assays (58.6”, “of TOP2A.” for “of TOP2A,”

For data set [1], the system named is TOP2A-dependent TCF-transcription in SW620-TOP tumor organoids. Briefly: TCF (TOPflash) reporter assay in 3D tumor organoids. In kind it is cell-based. The settings on record: SW620-TOP tumor organoids, 72 hours; read-out: IC50 inhibition of TCF-transcription. As for the experimental part:
TCF reporter assay in 3D Tumor organoid. Stable engineered cells containing pCDH-TOPflash-luc-EF1-puro were used to generate tumor organoid arrayed in 96-well plates and treated for 72 hours. One-Glo™ luciferase reagent and CellTiter-Glo™ 3D cell viability reagent (Promega) were used to determine the TCF reporter activity in viable cells.
After characterizing 3 and 7 as TOP2A ATP-competitive inhibitors, these compounds were next tested for their ability to inhibit TOP2A-dependent TCF-transcription using the well characterized TOPflash (TOP) luminescent reporter, which was used to generate a stably transduced SW620-TOP reporter cells as described previously (Zhou, et al., Oncogene 2016, 35:4990-9). These cells were used to generate single 3D tumor organoids (700 μm in diameter) uniformly arrayed in 96-well plates, which mimic aspects of tumor function observed in vivo. […] Like neo, the mode of action of compounds 3 and 7 also results in significant antitumor activity (FIGS. 3E-3H). […] In other words, the activity of 3 and 7 is long lasting, suppressing CSC stemness and related tumorigenicity. EMT is a major driving force promoting tumor cell invasion and metastasis. […] Tumor organoids were dissociated, and viable cells were washed and plated into the top chamber of 96-well invasion plate coated with Matrigel and incubated for an additional 72 hours without adding any additional compound. […] Taken together, the biological activity of 3 and 7 is consistent with the activity of neo, inhibiting TOP2A-dependent TCF-transcription that in turn reverses EMT while inhibiting the associated tumorigenic properties of mCRC.
A similar trend in IC50 values was observed compared to TOP2A enzyme studies, further supporting our proposed mechanism of action as inhibition of TOP2A-dependent TCF-transcription.
3D Tumor organoid TOPflash reporter assay. […] 35(38): p. 4990-9.] were used to generate tumor organoids arrayed in 96-well plates and treated for 72 h with TOP2A inhibitors. One-Glo™ luciferase reagent and CellTiter-Glo™ 3D cell viability reagent (Promega, WI) were used to determine the TCF reporter activity in viable cells. Briefly, reagents were added to the spheroids at 1:1 ratio (v:v) and the plates were placed on an orbital shaker (300 rpm) for 10 min at room temperature before the luminescence was read with Envision plate reader (PerkinElmer, MA). TCF reporter activity was normalized to organoid viability and inhibitors treated conditions were normalized to DMSO treated controls.
For orientation: A reporter such as luciferase makes a cellular process visible.

Data set [2] can be described thus: Water solubility (stated). Type of data set: physicochemical.
A further data set deals with SW620 tumor organoids. The data set can be described thus: Tumor organoid cytotoxicity / 3D cell viability (CellTox Green). The settings on record: Homo sapiens, SW-620, Table 2, 72 hours. Type of data set: cell-based. As for the experimental part: Tumor organoid cytotoxicity. Fluorescence image-based method: The CellTox™ Green assay (Promega, Madison, WI, USA) was used with 3D tumor organoid to measure spheroid death. 0.1% CellTox™ Green was included in each well at the time of analogs dosing. 10% lysis solution was used as a cell death control. Fluorescence was measured at various time points with 465-510 nm excitation and 520-530 nm emission. Luminescence plate reader method: A 1:1 ratio of CellTiter-Glo™ 3D reagent (Promega) was added to 3D tumor organoid and the plate was shaken at 400 rpm for 30 min before luminescence was read with a PerkinElmer Envision plate reader.
Finally, SW620 tumor organoid cytotoxicity experiments were conducted using the CellTox Green assay, a fluorescence image-based method, to determine whether the inhibition of TCF transcription and effects on EMT are not the result of cytotoxicity. […] All of the analogs tested display IC50 dose response >30 μM and were higher compared to the IC50 values obtained during the downregulation of TCF transcription activity, and the EC50 values obtained for EMT modulation. Thus, the biological effects on TCF-transcription and EMT are not a result of tumor organoid cell death.
(§2) Tumor organoid cytotoxicity. SW620 tumor organoids were grown as previously outlined. CellTox™ Green-Express Cytotoxicity Assay (Promega, WI) solution was prepared per manufacturer's protocol. Briefly, organoids were treated for 72 h with CellTox™ Green Express (0.5×) reagent and various doses of TOP2A inhibitors over a range of 0-to-40 μM. Organoids were then imaged using the Opera Phenix HCS system (PerkinElmer, MA). CellTox™ Green Express was excited at 488 nm and emission was detected at 500-550 nm. Mean intensity of the whole well was utilized for calculating cytotoxicity with Lysis Buffer (Promega, WI, 0.025×) as the 0% viability control and 0.4% DMSO as the 100% viability control. Intensity values were normalized to these controls using GraphPad Prism 7.0 (GraphPad, CA).
as §2, with “CellTox™-Green-Express” for “CellTox™ Green-Express”, “(GraphPad.” for “(GraphPad,”

Setting [3] is: Table 1, decatenation, 30 μM fixed concentration.
The mark [4] stands for this setting: Table 1, read-out: % Inhibition TOP2A (IC50 Values).
The mark [5] stands for this setting: read-out: IC50 TOP2A inhibition.

T1 sequence (P11388 whole entry): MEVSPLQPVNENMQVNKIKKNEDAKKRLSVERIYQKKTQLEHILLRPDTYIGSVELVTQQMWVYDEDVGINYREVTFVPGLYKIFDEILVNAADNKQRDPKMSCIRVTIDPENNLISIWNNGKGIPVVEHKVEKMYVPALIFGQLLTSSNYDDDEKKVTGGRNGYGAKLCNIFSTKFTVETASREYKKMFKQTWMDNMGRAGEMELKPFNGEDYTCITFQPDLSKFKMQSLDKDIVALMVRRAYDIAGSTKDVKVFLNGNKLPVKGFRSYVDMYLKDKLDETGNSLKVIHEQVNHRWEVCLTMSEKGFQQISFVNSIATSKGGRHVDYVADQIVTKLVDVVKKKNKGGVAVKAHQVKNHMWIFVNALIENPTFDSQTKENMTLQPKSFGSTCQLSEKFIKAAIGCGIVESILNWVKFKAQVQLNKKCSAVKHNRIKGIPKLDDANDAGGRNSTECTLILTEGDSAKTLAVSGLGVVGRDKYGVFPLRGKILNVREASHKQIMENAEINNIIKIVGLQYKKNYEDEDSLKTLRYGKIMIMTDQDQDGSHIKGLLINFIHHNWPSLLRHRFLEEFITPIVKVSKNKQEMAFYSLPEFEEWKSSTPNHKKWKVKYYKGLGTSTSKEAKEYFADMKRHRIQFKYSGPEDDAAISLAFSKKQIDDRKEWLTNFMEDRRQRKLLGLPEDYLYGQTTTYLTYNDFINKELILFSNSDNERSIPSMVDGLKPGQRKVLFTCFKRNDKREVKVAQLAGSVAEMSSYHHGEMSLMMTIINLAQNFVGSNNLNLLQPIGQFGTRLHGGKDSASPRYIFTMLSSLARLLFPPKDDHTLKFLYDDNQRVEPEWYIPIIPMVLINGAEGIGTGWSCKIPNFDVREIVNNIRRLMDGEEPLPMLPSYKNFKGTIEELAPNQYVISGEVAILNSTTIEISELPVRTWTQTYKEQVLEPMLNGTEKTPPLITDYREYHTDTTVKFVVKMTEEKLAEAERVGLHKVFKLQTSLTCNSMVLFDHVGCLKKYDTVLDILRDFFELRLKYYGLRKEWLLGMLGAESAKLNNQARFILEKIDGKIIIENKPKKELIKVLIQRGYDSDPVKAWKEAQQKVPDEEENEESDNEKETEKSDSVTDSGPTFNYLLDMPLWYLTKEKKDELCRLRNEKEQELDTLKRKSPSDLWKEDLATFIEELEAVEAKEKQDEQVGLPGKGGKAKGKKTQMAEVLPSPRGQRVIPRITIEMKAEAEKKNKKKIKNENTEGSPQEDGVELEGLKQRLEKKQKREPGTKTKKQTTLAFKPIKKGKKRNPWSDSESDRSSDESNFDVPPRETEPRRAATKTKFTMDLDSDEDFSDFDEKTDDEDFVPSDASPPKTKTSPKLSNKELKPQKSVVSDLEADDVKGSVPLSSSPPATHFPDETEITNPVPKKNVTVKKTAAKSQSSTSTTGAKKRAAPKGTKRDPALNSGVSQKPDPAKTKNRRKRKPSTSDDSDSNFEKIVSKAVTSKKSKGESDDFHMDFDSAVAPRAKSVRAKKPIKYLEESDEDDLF

By inhibition is commonly meant the drop in the measured response relative to a control, in per cent. A word on the IC50: it is the midpoint of a concentration-inhibition curve. Turning to `CC(=O)Nc1ccc2c(-c3cccs3)ccnc2c1O` [Analog 57], the inhibition at 30 µM at Human TOP2A (setting [3]) is 100%. The IC50 on Human TOP2A (setting [4]) was 2.3 µM; in data set [1], 7 µM.
Turning to `COc1c(NC(C)=O)ccc2c(-c3cc4ccccc4s3)ccnc12` [Analog 45], in data set [1], the IC50 worked out at 10.7 µM.
Take `O=C(CCN1CCOCC1)Nc1ccc2c(-c3cc4ccccc4o3)ccnc2c1O` [Analog 61]: the inhibition at 30 µM on Human TOP2A (setting [3]) amounted to 83%. The IC50 on Human TOP2A (setting [4]) came out at 4.1 µM; on Human TOP2A (setting [5]), 4 µM. Further, the “fold less potent compared to 53 (TOP2A IC50)” value on Human TOP2A (ratio of TOP2A IC50 values) was found to be 20 fold. For the same molecule, the “water solubility, in words” value in data set [2] is listed as “maintains water solubility”.
As for `CC(=O)Nc1ccc2c(-c3cc4ccccc4o3)ccnc2c1O` [Analog 53], on Human TOP2A (setting [3]), the inhibition at 30 µM was found to be 100%. The IC50 at Human TOP2A (setting [5]) is 0.24 µM and 0.2 µM; in the data set on SW620 tumor organoids, greater than 30 µM. Also, the “TOP2A inhibition, result in words” value at Human TOP2A (decatenation screen at 30 μM) is listed as “complete inhibitory activity against TOP2A”.
As for `O=C(CN1CCOCC1)Nc1ccc2c(-c3cc(F)ccc3O)ccnc2c1O` [Analog 41], the “% Inhibition TOP2A (30 μM)” value at Human TOP2A (setting [3]) is given as 4.0%. Besides, in data set [1], the IC50 worked out at 4.7 µM.
